# Data published in PubChem BioAssay (NCI).
#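 Cells were grown in 96-well plates and exposed to each compound for 48 hours at five concentrations; endpoints were interpolated linearly between bracketing concentrations, or set to the highest concentration if not reached. TGI is the concentration that stops growth completely.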
# Legend:
# Test in all cases: NCI tumour cell line growth inhibition, 48 h
# NCI-H226 lung = test system: NCI-H226 lung
# SR leukemia = test system: SR leukemia
# A549 NSCLC = test system: A549 NSCLC
# KM20L2 colon = test system: KM20L2 colon
# SN12C renal = test system: SN12C renal
# HOP-92 NSCLC = test system: HOP-92 NSCLC
# SK-MEL-5 melanoma = test system: SK-MEL-5 melanoma
# LOX IMVI melanoma = test system: LOX IMVI melanoma
# TK-10 renal = test system: TK-10 renal
# SF-268 CNS = test system: SF-268 CNS
# OVCAR-4 ovarian = test system: OVCAR-4 ovarian
# OVCAR-5 ovarian = test system: OVCAR-5 ovarian
# DMS 273 small cell lung = test system: DMS 273 small cell lung
# SNB-19 CNS = test system: SNB-19 CNS
# SF-539 CNS = test system: SF-539 CNS
# SNB-75 CNS = test system: SNB-75 CNS
# KM12 colon = test system: KM12 colon
# HOP-62 NSCLC = test system: HOP-62 NSCLC
# ACHN renal = test system: ACHN renal
# HT29 colon = test system: HT29 colon
# MOLT-4 leukemia = test system: MOLT-4 leukemia
# UACC-257 melanoma = test system: UACC-257 melanoma
# SK-MEL-2 melanoma = test system: SK-MEL-2 melanoma
# UO-31 renal = test system: UO-31 renal
# NCI-H23 lung = test system: NCI-H23 lung
# NCI-H522 lung = test system: NCI-H522 lung
# SW-620 colon = test system: SW-620 colon
# IGROV1 ovarian = test system: IGROV1 ovarian
# UACC-62 melanoma = test system: UACC-62 melanoma
# SK-OV-3 ovarian = test system: SK-OV-3 ovarian
# MALME-3M melanoma = test system: MALME-3M melanoma
# RXF-631 renal = test system: RXF-631 renal
# OVCAR-8 ovarian = test system: OVCAR-8 ovarian
# HOP-18 NSCLC = test system: HOP-18 NSCLC
# LXFL 529 NSCLC = test system: LXFL 529 NSCLC
# SF-295 CNS = test system: SF-295 CNS
# M14 melanoma = test system: M14 melanoma
# OVCAR-3 ovarian = test system: OVCAR-3 ovarian
# HL-60(TB) leukemia = test system: HL-60(TB) leukemia
# HCT-116 colon = test system: HCT-116 colon
# DLD-1 colon = test system: DLD-1 colon
# A498 renal = test system: A498 renal
# 786-0 renal = test system: 786-0 renal
# K-562 leukemia = test system: K-562 leukemia
# COLO 205 colon = test system: COLO 205 colon
# SK-MEL-28 melanoma = test system: SK-MEL-28 melanoma
# HCT-15 colon = test system: HCT-15 colon
# NCI-H460 lung = test system: NCI-H460 lung
# SNB-78 CNS = test system: SNB-78 CNS
# CCRF-CEM leukemia = test system: CCRF-CEM leukemia
# M19-MEL melanoma = test system: M19-MEL melanoma
# CAKI-1 renal = test system: CAKI-1 renal
# EKVX NSCLC = test system: EKVX NSCLC
# RXF 393 renal = test system: RXF 393 renal
# RPMI-8226 leukemia = test system: RPMI-8226 leukemia
# DMS 114 small cell lung = test system: DMS 114 small cell lung
# U251 CNS = test system: U251 CNS
# HCC-2998 colon = test system: HCC-2998 colon
smiles,measurement,setting,value
Cc1ccc(-n2c(O)c(C=N)c(=O)n(-c3ccc(C)cc3)c2=O)cc1,TGI,NCI-H226 lung,> 100 µM
same,TGI,SR leukemia,> 100 µM
same,TGI,A549 NSCLC,> 100 µM
same,TGI,KM20L2 colon,> 100 µM
same,TGI,SN12C renal,> 100 µM
same,TGI,HOP-92 NSCLC,95.9 µM
same,TGI,SK-MEL-5 melanoma,> 100 µM
same,TGI,LOX IMVI melanoma,> 100 µM
same,TGI,TK-10 renal,> 100 µM
same,TGI,SF-268 CNS,> 100 µM
same,TGI,OVCAR-4 ovarian,> 100 µM
same,TGI,OVCAR-5 ovarian,> 100 µM
same,TGI,DMS 273 small cell lung,> 100 µM
same,TGI,SNB-19 CNS,> 100 µM
same,TGI,SF-539 CNS,> 100 µM
same,TGI,SNB-75 CNS,75.2 µM
same,TGI,KM12 colon,> 100 µM
same,TGI,HOP-62 NSCLC,> 100 µM
same,TGI,ACHN renal,> 100 µM
same,TGI,HT29 colon,> 100 µM
same,TGI,MOLT-4 leukemia,> 100 µM
same,TGI,UACC-257 melanoma,> 100 µM
same,TGI,SK-MEL-2 melanoma,> 100 µM
same,TGI,UO-31 renal,> 100 µM
same,TGI,NCI-H23 lung,> 100 µM
same,TGI,NCI-H522 lung,> 100 µM
same,TGI,SW-620 colon,> 100 µM
same,TGI,IGROV1 ovarian,> 100 µM
same,TGI,UACC-62 melanoma,> 100 µM
same,TGI,SK-OV-3 ovarian,78.8 µM
same,TGI,MALME-3M melanoma,> 100 µM
same,TGI,RXF-631 renal,> 100 µM
same,TGI,OVCAR-8 ovarian,> 100 µM
same,TGI,HOP-18 NSCLC,> 100 µM
same,TGI,LXFL 529 NSCLC,> 100 µM
same,TGI,SF-295 CNS,> 100 µM
same,TGI,M14 melanoma,> 100 µM
same,TGI,OVCAR-3 ovarian,> 100 µM
same,TGI,HL-60(TB) leukemia,> 100 µM
same,TGI,HCT-116 colon,> 100 µM
same,TGI,DLD-1 colon,> 100 µM
same,TGI,A498 renal,> 100 µM
same,TGI,786-0 renal,> 100 µM
same,TGI,K-562 leukemia,> 100 µM
same,TGI,COLO 205 colon,> 100 µM
same,TGI,SK-MEL-28 melanoma,> 100 µM
same,TGI,HCT-15 colon,> 100 µM
same,TGI,NCI-H460 lung,> 100 µM
same,TGI,SNB-78 CNS,> 100 µM
same,TGI,CCRF-CEM leukemia,> 100 µM
same,TGI,M19-MEL melanoma,> 100 µM
same,TGI,CAKI-1 renal,> 100 µM
same,TGI,EKVX NSCLC,> 100 µM
same,TGI,RXF 393 renal,> 100 µM
CCOc1ccc([Se][Se]c2ccc(OCC)cc2)cc1,TGI,NCI-H226 lung,> 100 µM
same,TGI,SR leukemia,> 100 µM
same,TGI,A549 NSCLC,> 100 µM
same,TGI,KM20L2 colon,> 100 µM
same,TGI,SN12C renal,> 100 µM
same,TGI,TK-10 renal,> 100 µM
same,TGI,SF-268 CNS,> 100 µM
same,TGI,RPMI-8226 leukemia,> 100 µM
same,TGI,OVCAR-4 ovarian,> 100 µM
same,TGI,OVCAR-5 ovarian,> 100 µM
same,TGI,DMS 273 small cell lung,> 100 µM
same,TGI,SNB-19 CNS,> 100 µM
same,TGI,SF-539 CNS,> 100 µM
same,TGI,SNB-75 CNS,> 100 µM
same,TGI,DMS 114 small cell lung,> 100 µM
same,TGI,KM12 colon,> 100 µM
same,TGI,SK-MEL-2 melanoma,> 100 µM
same,TGI,UO-31 renal,> 100 µM
same,TGI,NCI-H23 lung,54.9 µM
same,TGI,NCI-H522 lung,> 100 µM
same,TGI,SW-620 colon,> 100 µM
same,TGI,IGROV1 ovarian,> 100 µM
same,TGI,UACC-62 melanoma,> 100 µM
same,TGI,MALME-3M melanoma,> 100 µM
same,TGI,RXF-631 renal,> 100 µM
same,TGI,OVCAR-8 ovarian,> 100 µM
same,TGI,HOP-18 NSCLC,> 100 µM
same,TGI,LXFL 529 NSCLC,> 100 µM
same,TGI,U251 CNS,96.8 µM
same,TGI,SF-295 CNS,> 100 µM
same,TGI,M14 melanoma,> 100 µM
same,TGI,OVCAR-3 ovarian,> 100 µM
same,TGI,HCC-2998 colon,> 100 µM
same,TGI,HCT-116 colon,> 100 µM
same,TGI,DLD-1 colon,> 100 µM
same,TGI,786-0 renal,> 100 µM
same,TGI,COLO 205 colon,> 100 µM
same,TGI,SK-MEL-28 melanoma,> 100 µM
same,TGI,HCT-15 colon,> 100 µM
same,TGI,NCI-H460 lung,> 100 µM
same,TGI,SNB-78 CNS,> 100 µM
same,TGI,M19-MEL melanoma,> 100 µM
same,TGI,CAKI-1 renal,49.6 µM
same,TGI,EKVX NSCLC,> 100 µM
same,TGI,RXF 393 renal,> 100 µM
